Results from patent US20080026943A1, “Phenyl-Substituted [1,2]-Oxazine-3,5-Dione and Dihydropyrone Derivatives” (priority 2004, published 2008).
Marks after values point to notes of the source that are not given here.

How the values were obtained:
[1] = system: Pyricularia oryzae; format: cell-based; conditions: tested at 0.1, 1, 10 and 100 ppm, 20° C., 3 to 5 days, photometric at 620 nm
[2] = system: Setaria; assay: Pre-emergence herbicidal effect, greenhouse; format: in vivo; conditions: scored after 3 weeks
Excerpt: (§1) Seeds of mono- and dicotyledonous weed and crop plants are placed in sandy loam soil in wood fibre pots and covered with soil. The test compounds, formulated as wettable powders (WP), are then applied as an aqueous suspension with a water application rate of 600 l/ha (converted) and with addition of 0.2% wetting agent, in different dosages to the surface of the covering soil. After the treatment, the pots are placed in a greenhouse and maintained under optimum growth conditions for the test plants. The visual scoring of the emergence damage on the trial plants is carried out after a trial time of 3 weeks in comparison to untreated controls (herbicidal effect in percent (%): 100% effect=plants have died, 0% effect=like control plants).

[3] = system: Lolium; assay: Pre-emergence herbicidal effect, greenhouse; format: in vivo; conditions: scored after 3 weeks
Excerpt: as §1

[4] = system: Setaria; assay: Post-emergence herbicidal effect, greenhouse; format: in vivo; conditions: 320 g a.i./ha, scored after about 3 weeks
Method: (§2) Seeds of mono- and dicotyledonous weed and crop plants are placed in sandy loam soil in wood fibre pots, covered with soil and cultivated in a greenhouse under good growth conditions. 2-3 weeks after sowing, the trial plants are treated at the one-leaf stage. The test compounds, formulated as wettable powders (WP), are sprayed at various dosages with a water application rate of 600 l/ha (converted) and with addition of 0.2% wetting agent to the green parts of the plants. After the trial plants have stood in the greenhouse for about 3 weeks under optimum growth conditions, the effect of the products is scored visually in comparison to untreated controls (herbicidal effect in percent (%): 100% effect=plants have died, 0% effect=like control plants).

[5] = system: Lolium; assay: Post-emergence herbicidal effect, greenhouse; format: in vivo; conditions: 320 g a.i./ha, scored after about 3 weeks
Method: as §2

[6] = system: Echinochloa; assay: Post-emergence herbicidal effect, greenhouse; format: in vivo; conditions: 320 g a.i./ha, scored after about 3 weeks
Method: as §2

[7] = logP by HPLC on a reversed-phase column (C18), EEC Directive 79/831 Annex V.A8; format: physicochemical; conditions: reversed-phase C18, 43° C., pH variant not stated for these values
Excerpt: [table] The determination is made in the acidic range at a pH of 2.3 using 0.1% aqueous phosphoric acid and acetonitrile as eluents; linear gradient from 10% acetonitrile to 95% acetonitrile. The determination with LC-MS in the acidic range is made at a pH of 2.7 with 0.1% aqueous formic acid and acetonitrile (containing 0.1% formic acid) as eluents; linear gradient from 10% acetonitrile to 95% acetonitrile. The determination with LC-MS in the neutral range is made at a pH of 7.8 with 0.001 molar aqueous ammonium hydrogen carbonate solution and acetonitrile as eluents; linear gradient from 10% acetonitrile to 95% acetonitrile. Calibration is carried out with unbranched alkan-2-ones (having 3 to 16 carbon atoms), for which the logP values are known (logP values determined on the basis of the retention times by means of linear interpolation between two successive alkanones).

[8] = system: green peach aphid (Myzus persicae); assay: Myzus persicae test (MYZUPE), leaf immersion; format: in vivo; conditions: 500 ppm; cabbage leaves immersed
Method: [table] A suitable preparation of active compound is prepared by mixing 1 part by weight of active compound with the stated amounts of solvent and emulsifier and diluting the concentrate with emulsifier-containing water to the desired concentration. Leaves of cabbage (Brassica oleracea) heavily infested by the green peach aphid (Myzus persicae) are treated by being immersed in the preparation of active compound at the desired concentration. After the desired time, the kill rate in % is determined. 100% means that all of the aphids have been killed; 0% means that no aphids have been killed.

[9] = system: Echinochloa; assay: Pre-emergence herbicidal effect, greenhouse; format: in vivo; conditions: 1000 g a.i./ha, scored after 3 weeks
Excerpt: as §1

[10] = system: Sorghum; assay: Post-emergence herbicidal effect, greenhouse; format: in vivo; conditions: 320 g a.i./ha, scored after about 3 weeks
Method: as §2

[11] = system: Sugarbeets; assay: Post-emergence herbicidal effect, greenhouse; format: in vivo; conditions: 320 g a.i./ha, scored after about 3 weeks
Method: as §2

[12] = system: Digitaria; assay: Post-emergence herbicidal effect, greenhouse; format: in vivo; conditions: 320 g a.i./ha, scored after about 3 weeks
Method: as §2

[13] = system: Plasmopara viticola; assay: Plasmopara test (grapevine)/protective; format: in vivo; conditions: protective, 100 g/ha, 6 days after inoculation
Method: (§3) [table] A suitable preparation of active compound is prepared by mixing 1 part by weight of active compound with the stated amounts of solvent and emulsifier and diluting the concentrate with water to the desired concentration. To test for protective activity, young plants are sprayed with the preparation of active compound at the stated application rate. After the spray coating has dried on, the plants are inoculated with an aqueous spore suspension of Plasmopara viticola and then spend 1 day in an incubation cabin at about 20° C. and 100% relative humidity. Thereafter the plants are placed in a greenhouse for 4 days at about 21° C. and about 90% humidity. The plants are then moistened and placed in an incubation cabin for 1 day.

[14] = system: Venturia inaequalis; assay: Venturia test (apple)/protective; format: in vivo; conditions: protective, 100 g/ha, 10 days after inoculation
Method: as §3, with “conidia” for “spore”, “the causative organism of apple scab, Venturia inaequalis,” for “Plasmopara viticola”, “greenhouse” for “greenhouse for 4 days”, “90% relative” for “90%”, “humidity.” for “humidity. The plants are then moistened and placed in an incubation cabin for 1 day.”

[15] = system: Botrytis cinerea; assay: Botrytis test (bean)/protective; format: in vivo; conditions: protective, 500 g/ha, two days after inoculation
Method: A suitable preparation of active compound is prepared by mixing 1 part by weight of active compound with the stated amounts of solvent and emulsifier and diluting the concentrate with water to the desired concentration.
To test for protective activity, young plants are sprayed with the preparation of active compound at the stated application rate. After the spray coating has dried on, two small pieces of agar colonized by Botrytis cinerea are placed on each leaf. The inoculated plants are placed in a darkened chamber at about 20° C. and 100% humidity.
Two days after inoculation, the size of the infestation spots on the leaves is evaluated. 0% denotes an efficacy corresponding to that of the control, while an efficacy of 100% denotes a total absence of observed infestation.

[16] = system: Sinapis; assay: Post-emergence herbicidal effect, greenhouse; format: in vivo; conditions: 320 g a.i./ha, scored after about 3 weeks
Method: as §2

| SMILES | ED50 (dose leading to 50% inhibition of fungal growth) [1] [ppm] | herbicidal effect in percent, Setaria [4] [%] | herbicidal effect in percent, Lolium [5] [%] | herbicidal effect in percent, Echinochloa [6] [%] | further results |
| --- | --- | --- | --- | --- | --- |
| Cc1ccc(C2(Cl)C(=O)N(C)OC(C)(C)C2=O)c(Cl)c1 (stereo not shown) [Example I-1-1] | <0.1 |  |  |  |  |
| CCc1cc(Cl)cc(Cl)c1C1(Cl)C(=O)N(C)OC(C)(C)C1=O (stereo not shown) [Example I-1-7] |  | 90 | 90 | 90 | herbicidal effect in percent, Setaria ([2]; 320 g a.i./ha): 100%; herbicidal effect in percent, Lolium ([3]; 320 g a.i./ha): 100% |
| CCc1cc(Br)ccc1C1(Cl)C(=O)N(C)OC(C)(C)C1=O (stereo not shown) [Example I-1-10] |  | 80 | 90 | 90 |  |
| CN1OC(C)(C)C(=O)C(Cl)(c2cc(-c3ccc(Cl)cc3)ccc2Cl)C1=O (stereo not shown) [Example I-1-11] |  |  |  |  | log P [7]: log P 4.58* |
| Cc1ccc(-c2ccc(C(F)(F)F)cc2)cc1C1(Cl)C(=O)N(C)OC(C)(C)C1=O (stereo not shown) [Example I-1-12] |  |  |  |  | log P [7]: log P 4.56* |
| CC1(C)OC(=O)C(Cl)(c2cc(-c3ccc(Cl)cc3)ccc2Cl)C(=O)C1(C)C (stereo not shown) [Example I-2-1] | 0.48 |  |  |  | activity (kill rate in %) [8]: ≥ 80% |
| Cc1ccc(-c2ccc(Cl)cc2)cc1C1(Cl)C(=O)OC2CCCCC2(C)C1=O (stereo not shown) [Example I-2-2] | 0.12 | 100 | 80 | 100 | herbicidal effect in percent, Setaria ([2]; 1000 g a.i./ha): 100%; herbicidal effect in percent, Lolium ([3]; 1000 g a.i./ha): 80%; herbicidal effect in percent, Echinochloa [9]: 100%; herbicidal effect in percent, Sorghum [10]: 80%; herbicidal effect in percent, Sugarbeets [11]: 0%; herbicidal effect in percent, Digitaria [12]: 100%; Efficacy in % [13]: 100%; Efficacy in % [14]: 99%; Efficacy in % [15]: 93% |
| CC1(C)OC(=O)C(Cl)(c2cc(-c3ccc(Cl)cc3Cl)ccc2Cl)C(=O)C1(C)C (stereo not shown) [Example I-2-6] |  | 90 | 70 | 90 | herbicidal effect in percent, Sinapis [16]: 40% |
| Cc1ccc(-c2ccc(Cl)cc2)cc1C1(Cl)C(=O)OC(C)(C)C(C)(C)C1=O (stereo not shown) [Example I-2-10] |  | 90 | 70 | 70 | herbicidal effect in percent, Sinapis [16]: 80% |
